Measurements reported in patent publication US8933074B2, “1,2-disubstituted heterocyclic compounds” (FORUM Pharmaceuticals Inc., priority 2008, dated 2015).

Target: Human PDE10A1 (Homo sapiens, UniProt Q9Y233)
Assay: hPDE10A1 enzyme inhibition
Type: biochemical
Conditions: [3H]-cAMP substrate, 20 minutes at 37° C.; read-out: hPDE10A1 IC50 Band
Description: 50 μl samples of serially diluted Human PDE10A1 enzyme were incubated with 50 μl of [^3H]-cAMP for 20 minutes (at 37° C.). Reactions were carried out in Greiner 96 deep well 1 ml master-block. The enzyme was diluted in 20 mM Tris HCl pH7.4 and [^3H]-cAMP was diluted in 10 mM MgCl2, 40 mM Tris.HCl pH 7.4. The reaction was terminated by denaturing the PDE enzyme (at 70° C.) after which [^3H]-5′-AMP was converted to [^3H]-adenosine by adding 25 μl snake venom nucleotidase and incubating for 10 minutes (at 37° C.). Adenosine, being neutral, was separated from charged cAMP or AMP by the addition of 200 μl Dowex resin. Samples were shaken for 20 minutes then centrifuged for 3 minutes at 2,500 r.p.m. 50 μl of supernatant was removed and added to 200 μl of MicroScint-20 in white plates (Greiner 96-well Optiplate) and shaken for 30 minutes before reading on Perkin Elmer TopCount Scintillation Counter.
To check inhibition profile 11 μl of serially diluted inhibitor was added to 50 μl of [^3H]-cAMP and 50 ul of diluted Human PDE10A1 and assay was carried out as in the enzyme activity assay. Data was analysed using Prism software (GraphPad Inc).

Chain of Human PDE10A1 (Q9Y233 1-779 isoform Q9Y233-1): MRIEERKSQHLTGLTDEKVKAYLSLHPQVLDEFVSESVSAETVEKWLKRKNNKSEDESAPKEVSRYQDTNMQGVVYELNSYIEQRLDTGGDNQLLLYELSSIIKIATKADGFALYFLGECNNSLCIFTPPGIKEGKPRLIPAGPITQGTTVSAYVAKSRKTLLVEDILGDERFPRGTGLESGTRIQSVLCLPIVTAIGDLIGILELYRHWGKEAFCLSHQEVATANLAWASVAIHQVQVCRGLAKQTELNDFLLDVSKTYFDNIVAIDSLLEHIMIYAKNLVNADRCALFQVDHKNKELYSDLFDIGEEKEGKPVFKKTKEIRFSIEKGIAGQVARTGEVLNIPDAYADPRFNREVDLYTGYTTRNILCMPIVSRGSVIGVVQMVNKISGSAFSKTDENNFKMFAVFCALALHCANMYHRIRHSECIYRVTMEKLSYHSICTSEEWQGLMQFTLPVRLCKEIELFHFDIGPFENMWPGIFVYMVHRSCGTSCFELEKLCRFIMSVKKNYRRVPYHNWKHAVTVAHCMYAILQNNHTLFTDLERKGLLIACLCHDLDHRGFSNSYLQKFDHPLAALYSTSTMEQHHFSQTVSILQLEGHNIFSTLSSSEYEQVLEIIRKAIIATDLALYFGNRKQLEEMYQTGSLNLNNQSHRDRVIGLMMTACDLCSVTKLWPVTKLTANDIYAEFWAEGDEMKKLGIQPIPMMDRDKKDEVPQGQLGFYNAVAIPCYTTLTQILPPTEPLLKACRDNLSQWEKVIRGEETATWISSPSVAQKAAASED

Work on `CN1C(=O)C(c2ccncc2)=C(c2ccc(OCc3ccc4ccccc4n3)cc2)C1=O` [Example 11, 1-methyl-3-(pyridin-4-yl)-4-(4-(quinolin-2-ylmethoxy)phenyl)-1H-pyrrole-2,5-dione] yielded an IC50 of over 50 nM.
`CC1(C)OC(=O)C(c2ccc(OCc3ccc4ccccc4n3)cc2)=C1c1ccncc1` [Example 23, 5,5-dimethyl-4-(pyridin-4-yl)-3-(4-(quinolin-2-ylmethoxy)phenyl)furan-2(5H)-one] gave an IC50 of at most 50 nM.
For `O=C1OC2(CC2)C(c2ccncc2)=C1c1ccc(OCc2ccc3ccccc3n2)cc1` [Example 26, 7-(Pyridin-4-yl)-6-(4-(quinolin-2-ylmethoxy)phenyl)-4-oxaspiro[2.4]hept-6-en-5-one], the IC50 was over 50 nM.
`COc1ccc(C2=C(c3ccc(OCc4ccc5ccccc5n4)cc3)C(=O)OC2(C)C)cc1` [Example 33, 4-(4-methoxyphenyl)-5,5-dimethyl-3-(4-(quinolin-2-ylmethoxy)phenyl)furan-2(5H)-one] was tested, and the IC50 was at most 50 nM.
`CC1(C)NC(=O)C(c2ccc(OCc3ccc4ccccc4n3)cc2)=C1c1ccncc1` [Example 63, 5,5-dimethyl-4-(pyridin-4-yl)-3-(4-(quinolin-2-ylmethoxy)phenyl)-1H-pyrrol-2(5H)-one] was tested, and the IC50 was at most 50 nM.
In the case of `COc1ccc(C2=C(c3ccc(OCc4ccc5ccccc5n4)cc3)C(=O)N(C)C2(C)C)cc1` [Example 73, 4-(4-methoxyphenyl)-1,5,5-trimethyl-3-(4-(quinolin-2-ylmethoxy)phenyl)-1H-pyrrol-2(5H)-one], the IC50 is reported as over 50 nM.
`CC1(C)OC(c2ccncc2)=C(c2ccc(OCc3ccc4ccccc4n3)cc2)C1=O` [Example 125, 2,2-dimethyl-5-(pyridin-4-yl)-4-(4-(quinolin-2-ylmethoxy)phenyl) furan-3(2H)-one] gave an IC50 of at most 50 nM.
In the case of `COc1ccc(C2=C(c3ccc(OCc4ccc5ccccc5n4)cc3)C(=O)OC23CC3)cc1` [Example 126, 7-(4-methoxyphenyl)-6-(4-(quinolin-2-ylmethoxy)phenyl)-4-oxaspiro[2.4]hept-6-en-5-one], the IC50 is reported as at most 50 nM.
`CC1(C)OC(c2ccncn2)=C(c2ccc(OCc3ccc4ccccc4n3)cc2)C1=O` [Example 127, 2,2-dimethyl-5-(pyrimidin-4-yl)-4-(4-(quinolin-2-ylmethoxy)phenyl)furan-3(2H)-one] showed an IC50 of over 50 nM.
In the case of `CC1(C)OC(c2ccnc(O)c2)=C(c2ccc(OCc3ccc4ccccc4n3)cc2)C1=O` [Example 130, 5-(2-hydroxypyridin-4-yl)-2,2-dimethyl-4-(4-(quinolin-2-ylmethoxy)phenyl)furan-3(2H)-one], the IC50 is reported as at most 50 nM.
Compound `COc1cc(C2=C(c3ccc(OCc4ccc5ccccc5n4)cc3)C(=O)C(C)(C)O2)ccn1` [Example 131, 5-(2-methoxypyridin-4-yl)-2,2-dimethyl-4-(4-(quinolin-2-ylmethoxy)phenyl)furan-3(2H)-one] has an IC50 of at most 50 nM.
`CC1(C)OC(c2ccc(O)nc2)=C(c2ccc(OCc3ccc4ccccc4n3)cc2)C1=O` [Example 132, 5-(6-hydroxypyridin-3-yl)-2,2-dimethyl-4-(4-(quinolin-2-ylmethoxy)phenyl)furan-3(2H)-one] was tested, and the IC50 was at most 50 nM.
With `COc1ccc(C2=C(c3ccc(OCc4ccc5ccccc5n4)cc3)C(=O)C(C)(C)O2)cn1` [Example 133, 5-(6-methoxypyridin-3-yl)-2,2-dimethyl-4-(4-(quinolin-2-ylmethoxy)phenyl)furan-3(2H)-one] the IC50 was at most 50 nM.
`COc1ccc(C2=C(c3ccc(OCc4ccc5ccccc5n4)cc3)C(=O)C(C)(C)O2)cc1F` [Example 134, 5-(3-fluoro-4-methoxyphenyl)-2,2-dimethyl-4-(4-(quinolin-2-ylmethoxy)phenyl)furan-3(2H)-one] gave an IC50 of at most 50 nM.
Compound `COc1ccc(C2=C(c3ccc(OCc4ccc5ccccc5n4)cc3)C(=O)C(C)(C)O2)cc1Cl` [Example 135, 5-(3-Chloro-4-methoxyphenyl)-2,2-dimethyl-4-(4-(quinolin-2-ylmethoxy)phenyl) furan-3(2H)-one] has an IC50 of at most 50 nM.
`COc1ccc(C2=C(c3ccc(OCc4ccc5ccccc5n4)cc3)C(=O)C(C)(C)O2)cc1C#N` [Example 137, 5-(5,5-Dimethyl-4-oxo-3-(4-(quinolin-2-ylmethoxy)phenyl)-4,5-dihydrofuran-2-yl)-2-methoxybenzonitrile] showed an IC50 of at most 50 nM.
`COc1ccc(C2=C(c3ccc(OCc4ccc5ccccc5n4)cc3)C(=O)C(C)(C)O2)cc1` [Example 138, 5-(4-Methoxyphenyl)-2,2-dimethyl-4-(4-(quinolin-2-ylmethoxy)phenyl) furan-3(2H)-one] gave an IC50 of at most 50 nM.
In the case of `CC1(C)OC(c2ccc(C#N)cc2)=C(c2ccc(OCc3ccc4ccccc4n3)cc2)C1=O` [Example 141, 4-(5,5-Dimethyl-4-oxo-3-(4-(quinolin-2-ylmethoxy)phenyl)-4,5-dihydrofuran-2-yl)benzonitrile], the IC50 is reported as at most 50 nM.
`CC1(C)OC(c2ccc(Cl)cc2)=C(c2ccc(OCc3ccc4ccccc4n3)cc2)C1=O` [Example 147, 5-(4-Chlorophenyl)-2,2-dimethyl-4-(4-(quinolin-2-ylmethoxy)phenyl) furan-3(2H)-one] showed an IC50 of at most 50 nM.
Work on `CC1(C)OC(c2ccc(F)cc2)=C(c2ccc(OCc3ccc4ccccc4n3)cc2)C1=O` [Example 153, 5-(4-fluorophenyl)-2,2-dimethyl-4-(4-(quinolin-2-ylmethoxy)phenyl)furan-3(2H)-one] yielded an IC50 of at most 50 nM.
With `CC1(C)OC(c2ccc(C(F)(F)F)cc2)=C(c2ccc(OCc3ccc4ccccc4n3)cc2)C1=O` [Example 154, 2,2-dimethyl-4-(4-(quinolin-2-ylmethoxy)phenyl)-5-(4-(trifluoromethyl)phenyl)furan-3(2H)-one] the IC50 was at most 50 nM.
In the case of `CC1(C)OC(c2ccc(OC(F)(F)F)cc2)=C(c2ccc(OCc3ccc4ccccc4n3)cc2)C1=O` [Example 155, 2,2-dimethyl-4-(4-(quinolin-2-ylmethoxy)phenyl)-5-(4-(trifluoromethoxy)phenyl)furan-3(2H)-one], the IC50 is reported as at most 50 nM.
Work on `CC1(C)OC(c2ccc(CC(F)(F)F)cc2)=C(c2ccc(OCc3ccc4ccccc4n3)cc2)C1=O` [Example 156, 2,2-dimethyl-4-(4-(quinolin-2-ylmethoxy)phenyl)-5-(4-(2,2,2-trifluoroethyl)phenyl)furan-3(2H)-one] yielded an IC50 of at most 50 nM.
`CCOc1ccc(C2=C(c3ccc(OCc4ccc5ccccc5n4)cc3)C(=O)C(C)(C)O2)cc1` [Example 157, 5-(4-ethoxyphenyl)-2,2-dimethyl-4-(4-(quinolin-2-ylmethoxy)phenyl)furan-3(2H)-one] showed an IC50 of at most 50 nM.
Compound `CC(C)Oc1ccc(C2=C(c3ccc(OCc4ccc5ccccc5n4)cc3)C(=O)C(C)(C)O2)cc1` [Example 158, 5-(4-isopropoxyphenyl)-2,2-dimethyl-4-(4-(quinolin-2-ylmethoxy)phenyl)furan-3(2H)-one] has an IC50 of over 50 nM.
Work on `CC1(C)OC(c2ccc(OC(F)F)cc2)=C(c2ccc(OCc3ccc4ccccc4n3)cc2)C1=O` [Example 159, 5-(4-(difluoromethoxy)phenyl)-2,2-dimethyl-4-(4-(quinolin-2-ylmethoxy)phenyl)furan-3(2H)-one] yielded an IC50 of at most 50 nM.
`CC1(C)OC(c2ccc(OCC3CC3)cc2)=C(c2ccc(OCc3ccc4ccccc4n3)cc2)C1=O` [Example 161, 5-(4-(cyclopropylmethoxy)phenyl)-2,2-dimethyl-4-(4-(quinolin-2-ylmethoxy)phenyl)furan-3(2H)-one] was tested, and the IC50 was over 50 nM.
`CC1(C)OC(c2ccc(OCC(F)(F)F)cc2)=C(c2ccc(OCc3ccc4ccccc4n3)cc2)C1=O` [Example 162, 2,2-dimethyl-4-(4-(quinolin-2-ylmethoxy)phenyl)-5-(4-(2,2,2-trifluoroethoxy)phenyl)furan-3(2H)-one] was tested, and the IC50 was at most 50 nM.
`CC1(C)OC(c2ccc([N+](=O)[O-])cc2)=C(c2ccc(OCc3ccc4ccccc4n3)cc2)C1=O` [Example 164, 2,2-Dimethyl-5-(4-nitrophenyl)-4-(4-(quinolin-2-ylmethoxy)phenyl) furan-3(2H)-one] gave an IC50 of at most 50 nM.
Compound `CC1(C)OC(c2ccc3nonc3c2)=C(c2ccc(OCc3ccc4ccccc4n3)cc2)C1=O` [Example 166, 5-(Benzo[c][1,2,5]oxadiazol-5-yl)-2,2-dimethyl-4-(4-(quinolin-2-ylmethoxy)phenyl)furan-3(2H)-one] has an IC50 of at most 50 nM.
With `CC1(C)OC(c2ccc3nsnc3c2)=C(c2ccc(OCc3ccc4ccccc4n3)cc2)C1=O` [Example 167, 5-(Benzo[c][1,2,5]thiadiazol-5-yl)-2,2-dimethyl-4-(4-(quinolin-2-ylmethoxy)phenyl)furan-3(2H)-one] the IC50 was at most 50 nM.
`CC1(C)OC(c2ccc(OC(F)F)c(C#N)c2)=C(c2ccc(OCc3ccc4ccccc4n3)cc2)C1=O` [Example 169, 2-(difluoromethoxy)-5-(5,5-dimethyl-4-oxo-3-(4-(quinolin-2-ylmethoxy)phenyl)-4,5-dihydrofuran-2-yl)benzonitrile] gave an IC50 of at most 50 nM.
In the case of `CC1(C)OC(c2ccc(-n3cnnn3)cc2)=C(c2ccc(OCc3ccc4ccccc4n3)cc2)C1=O` [Example 170, 5-(4-(1H-tetrazol-1-yl)phenyl)-2,2-dimethyl-4-(4-(quinolin-2-ylmethoxy)phenyl)furan-3(2H)-one], the IC50 is reported as at most 50 nM.
With `CC1(C)OC(c2cscn2)=C(c2ccc(OCc3ccc4ccccc4n3)cc2)C1=O` [Example 174, 2,2-dimethyl-4-(4-(quinolin-2-ylmethoxy)phenyl)-5-(thiazol-4-yl)furan-3(2H)-one] the IC50 was at most 50 nM.
With `CC1(C)OC(c2ccc(OCc3ccc4ccccc4n3)cc2)=C(c2ccncc2)C1=O` [Example 249, 2,2-dimethyl-4-(pyridin-4-yl)-5-(4-(quinolin-2-ylmethoxy)phenyl) furan-3(2H)-one] the IC50 was at most 50 nM.
